# Structures can show the parent of a compound that is named as a salt. Where two headings read alike, the source gives them in different places.
# Assays:
# [1] = system: NCI-H292 lung cancer cells; assay: FDA drug screening, complete media vs cholesterol-free media with simvastatin (TABLE 2); assay type: cell-based, human
# [2] = system: NCI-H292 lung cancer cells; assay: FDA drug screening, complete media vs cholesterol-free media without statin (TABLE 1); assay type: cell-based, human
# [3] = NCI-H292 cells, FDA library drug in cholesterol-free media with simvastatin 0.04 μM
# [4] = NCI-H292 cells, FDA library drug in complete media
# [5] = complete media vs cholesterol-free media + simvastatin (0.04 μM), >0 enhanced anti-cancer activity, about 0 neutral, <0 antagonist
# [6] = NCI-H292 cells, cholesterol-free media without statin, FDA drug library screen
# [7] = NCI-H292 cells, complete media, FDA drug library screen
# [8] = complete vs cholesterol-free media, >0 enhanced anti-cancer activity, about 0 neutral, <0 antagonist
# [9] = NCI-H292 cells, cholesterol-free media with simvastatin 0.04 μM, cell growth value in FDA drug screen
# [10] = NCI-H292 cells, complete media, cell growth value in FDA drug screen
# [11] = complete media minus cholesterol-free media + simvastatin, >0 enhanced anti-cancer activity, about 0 neutral, <0 antagonist
# [12] = NCI-H292 cells, FDA drug library screen, cholesterol-free media without statin
# [13] = NCI-H292 cells, FDA drug library screen, complete media
# [14] = NCI-H292 cells, drug in cholesterol-free media with simvastatin 0.04 μM
# [15] = NCI-H292 cells, drug in complete media
# [16] = Complete minus Cholesterol-free, greater than 0 enhanced anti-cancer activity, about 0 neutral, below 0 antagonists
# [17] = NCI-H292 cells in cholesterol-free media without statin
# [18] = NCI-H292 cells in complete media
# [19] = NCI-H292 cells, cholesterol-free media with simvastatin 0.04 μM, […]
# [20] = complete media minus cholesterol-free media + simvastatin, […]
# [21] = Complete minus Cholesterol-free, […]
# [22] = NCI-H292 cells, FDA drug library screen, cholesterol-free media with simvastatin 0.04 μM
# [23] = Complete minus Cholesterol-free, >0 enhanced anti-cancer activity, about 0 neutral, <0 antagonist
# [24] = NCI-H292 cells, cholesterol-free media without statin
# [25] = complete vs cholesterol-free media, greater than 0 enhanced anti-cancer activity, about 0 neutral, below 0 antagonists
compound,measurement,setting,value
Clc1ccc2c(c1)C(N1CCNCC1)=Nc1ccccc1O2 [Amoxapine],Cholesterol-free media + simvastatin (0.04 μM),[1]; [3],1.586
same,Complete Media,[1]; [4],1.017
same,Difference,[1]; [5],−0.57
same,Cholesterol-free,[2]; [6],1.3
same,Complete,[2]; [7],1.39
same,Difference,[2]; [8],0.09
CC(C)(Oc1ccc(Cl)cc1)C(=O)O [Clofibric acid],Cholesterol-free media + simvastatin (0.04 μM),[1]; [9],1.015
same,Complete Media,[1]; [10],1.071
same,Difference,[1]; [11],0.06
same,Difference,"[2]; Complete minus Cholesterol-free, greater than 0 enhanced anti-cancer activity, about 0 neutral, below 0 antagonist",−0.18
same,Cholesterol-free,[2]; [12],0.9932
same,Complete,[2]; [13],0.8121
NC[C@H]1CC[C@H](C(=O)O)CC1 [Tranexamic acid],Cholesterol-free media + simvastatin (0.04 μM),[1]; [14],1.894
same,Complete Media,[1]; [15],1.678
same,Difference,[1]; [5],−0.22
same,Difference,[2]; [16],−0.77
same,Cholesterol-free,[2]; [17],2.288
same,Complete,[2]; [18],1.522
COc1ccccc1OC(=O)c1ccccc1OC(C)=O [Guacetisal],Cholesterol-free media + simvastatin (0.04 μM),[1]; [19],1.34
same,Complete Media,"[1]; NCI-H292 cells, complete media, […]",1.4
same,Difference,[1]; [20],0.06
same,Difference,[2]; [21],−0.09
same,Cholesterol-free,[2]; [12],0.837
same,Complete,[2]; [13],0.7434
CC(C[N+](C)(C)C)OC(N)=O.[Cl-] (stereo not shown) [Bethanechol (chloride)],Cholesterol-free media + simvastatin (0.04 μM),[1]; [3],1.34
same,Complete Media,[1]; [4],0.9882
same,Difference,[1]; [5],−0.35
same,Cholesterol-free,[2]; [6],1.24
same,Complete,[2]; [7],1.407
same,Difference,[2]; [8],0.17
CCCNC(C)C(=O)Nc1c(C)csc1C(=O)OC (stereo not shown) [Articaine (hydrochloride)],Cholesterol-free media + simvastatin (0.04 μM),[1]; [22],0.9336
same,Complete Media,[1]; [13],0.8247
same,Difference,[1]; [5],−0.11
same,Cholesterol-free,[2]; [6],1.045
same,Complete,[2]; [7],1.285
same,Difference,[2]; [8],0.24
CCCN1CCCC[C@H]1C(=O)Nc1c(C)cccc1C [Ropivacaine (hydrochloride)],Cholesterol-free media + simvastatin (0.04 μM),[1]; [14],1.189
same,Complete Media,[1]; [15],0.9899
same,Difference,[1]; [5],−0.20
same,Difference,[2]; [23],0.07
same,Cholesterol-free,[2]; [6],1.2
same,Complete,[2]; [7],1.265
CONC(=O)Nc1ccc(-c2sc3c(c2CN(C)C)c(=O)n(-c2ccc(OC)nn2)c(=O)n3Cc2c(F)cccc2F)cc1 [Relugolix],Cholesterol-free media + simvastatin (0.04 μM),[1]; [3],1.344
same,Complete Media,[1]; [4],1.077
same,Difference,[1]; [5],−0.27
same,Difference,[2]; [16],−0.64
same,Complete,[2]; [18],0.978
COCCCOc1cc(C[C@@H](C[C@H](N)[C@@H](O)C[C@H](C(=O)NCC(C)(C)C(N)=O)C(C)C)C(C)C)ccc1OC [Aliskiren],Cholesterol-free media + simvastatin (0.04 μM),[1]; [3],1.326
same,Complete Media,[1]; [4],0.8268
same,Difference,[1]; [5],−0.50
same,Difference,[2]; [16],−0.67
same,Cholesterol-free,[2]; [17],1.754
same,Complete,[2]; [18],1.084
Asenapine (maleate),Cholesterol-free media + simvastatin (0.04 μM),[1]; [14],1.309
same,Complete Media,[1]; [15],1.135
same,Difference,[1]; [5],−0.17
same,Difference,[2]; [16],−0.56
same,Cholesterol-free,[2]; [17],1.49
same,Complete,[2]; [18],0.9322
O=C(O[C@H]1C[C@H]2CC[C@@H](C1)[N+]21CCCC1)C(O)(c1ccccc1)c1ccccc1.[Cl-] [Trospium (chloride)],Cholesterol-free media + simvastatin (0.04 μM),[1]; [3],2.08
same,Complete Media,[1]; [4],1.646
same,Difference,"[1]; complete media vs cholesterol-free media + simvastatin (0.04 μM), […]",−0.43
same,Cholesterol-free,[2]; [6],1.278
same,Complete,[2]; [7],1.859
same,Difference,"[2]; complete vs cholesterol-free media, […]",0.58
Nc1cc(N2CCCCC2)nc(N)[n+]1[O-] [Minoxidil],Cholesterol-free media + simvastatin (0.04 μM),[1]; [3],1.841
same,Difference,[1]; [5],−0.68
same,Difference,[2]; [23],−0.20
same,Cholesterol-free,[2]; [24],1.202
same,Complete,"[2]; NCI-H292 cells, complete media",1.002
Bazedoxifene (acetate),Cholesterol-free media + simvastatin (0.04 μM),[1]; [22],0.4477
same,Complete Media,[1]; [13],0.8485
same,Difference,[1]; [11],0.40
same,Difference,[2]; [23],−0.29
same,Complete,"[2]; NCI-H292 cells, complete media",0.8636
CS(=O)(=O)OC[C@H](O)[C@@H](O)COS(C)(=O)=O [Treosulfan],Cholesterol-free media + simvastatin (0.04 μM),[1]; [14],1.216
same,Complete Media,[1]; [15],1.032
same,Difference,[1]; [5],−0.18
same,Difference,[2]; [16],−0.50
same,Cholesterol-free,[2]; [17],1.319
same,Complete,[2]; [18],0.8211
CC(C)CN(C[C@@H](O)[C@H](Cc1ccccc1)NC(=O)O[C@H]1CO[C@H]2OCC[C@H]21)S(=O)(=O)c1ccc(N)cc1 [Darunavir (Ethanolate)],Cholesterol-free media + simvastatin (0.04 μM),[1],1.545
same,Complete Media,[1],1.286
same,Difference,[1],−0.26
same,Cholesterol-free,[2],0.8952
same,Difference,[2],0.25
C[C@@H]1[C@H](O)[C@@H](C)/C=C/C=C/C=C/C=C/C=C/C=C/C=C/[C@H](O[C@@H]2O[C@H](C)[C@@H](O)[C@H](N)[C@@H]2O)C[C@@H]2O[C@](O)(C[C@@H](O)C[C@@H](O)[C@H](O)CC[C@@H](O)C[C@@H](O)CC(=O)O[C@H]1C)C[C@H](O)[C@H]2C(=O)O [Amphotericin B],Cholesterol-free media + simvastatin (0.04 μM),[1]; [14],1.212
same,Complete Media,[1]; [15],0.9521
same,Difference,[1]; [5],−0.26
same,Difference,[2]; [23],0.05
same,Cholesterol-free,[2]; [6],1.082
same,Complete,[2]; [7],1.128
CCOC(=O)[N-]c1cn(N2CCOCC2)n[o+]1 [Molsidomine],Cholesterol-free media + simvastatin (0.04 μM),[1]; [22],1.15
same,Complete Media,[1]; [13],1.6
same,Difference,[1]; [11],0.45
same,Difference,[2]; [16],−0.60
same,Cholesterol-free,[2]; [17],1.343
same,Complete,[2]; [18],0.7419
C[C@@H](Oc1cc(-c2cnn(C3CCNCC3)c2)cnc1N)c1c(Cl)ccc(F)c1Cl [Crizotinib],Cholesterol-free media + simvastatin (0.04 μM),[1]; [9],0.4044
same,Complete Media,[1]; [10],0.5269
same,Difference,[1]; [11],0.12
same,Cholesterol-free,[2]; [6],0.1411
same,Complete,[2]; [7],0.3735
same,Difference,[2]; [8],0.23
CC1CS(=O)(=O)CCN1/N=C/c1ccc([N+](=O)[O-])o1 (stereo not shown) [Nifurtimox],Cholesterol-free media + simvastatin (0.04 μM),[1]; [14],1.357
same,Complete Media,[1]; [15],1.111
same,Difference,[1]; [5],−0.25
same,Cholesterol-free,[2]; [24],1.443
same,Complete,"[2]; NCI-H292 cells, complete media",1.102
same,Difference,[2]; [25],−0.34
CCOC(=O)c1ccc(O)cc1 [Ethylparaben],Cholesterol-free media + simvastatin (0.04 μM),[1]; [22],1.326
same,Complete Media,[1]; [13],1.517
same,Difference,[1]; [11],0.19
same,Cholesterol-free,[2]; [6],1.065
same,Complete,[2]; [7],1.563
same,Difference,[2]; [8],0.50
O=C(OC[C@H]1O[C@@H](OC(=O)c2cc(O)c(O)c(OC(=O)c3cc(O)c(O)c(O)c3)c2)[C@H](OC(=O)c2cc(O)c(O)c(OC(=O)c3cc(O)c(O)c(O)c3)c2)[C@@H](OC(=O)c2cc(O)c(O)c(OC(=O)c3cc(O)c(O)c(O)c3)c2)[C@@H]1OC(=O)c1cc(O)c(O)c(OC(=O)c2cc(O)c(O)c(O)c2)c1)c1cc(O)c(O)c(OC(=O)c2cc(O)c(O)c(O)c2)c1 [Tannic acid],Cholesterol-free media + simvastatin (0.04 μM),[1]; [22],1.824
same,Complete Media,[1]; [13],2.065
same,Difference,[1]; [11],0.24
same,Difference,[2]; [16],−0.60
same,Cholesterol-free,[2]; [17],1.391
same,Complete,[2]; [18],0.7941
Cc1ccc(=O)n(-c2ccccc2)c1 [Pirfenidone],Cholesterol-free media + simvastatin (0.04 μM),[1]; [3],1.397
same,Complete Media,[1]; [4],1.068
same,Difference,[1]; [5],−0.33
same,Cholesterol-free,[2]; [24],1.328
same,Complete,"[2]; NCI-H292 cells, complete media",0.9771
same,Difference,[2]; [25],−0.35
Cetrorelix (Acetate),Cholesterol-free media + simvastatin (0.04 μM),[1]; [19],1.03
same,Difference,[1]; [20],0.08
same,Difference,[2]; [21],−1.14
same,Cholesterol-free,[2]; [17],1.889
same,Complete,[2]; [18],0.7459

# From patent US20250144067A1, “PERSONALIZED STARVATION THERAPY FOR CANCER” (Faeth Therapeutics, Inc., priority 2021, published 2025)
